# System: yeast genes (level of expressed mRNA)
# Assay: DNA chip analysis of expressed mRNA of yeast genes after 2 h culture with a toxic chemical substance
# Assay type: cell-based, Saccharomyces cerevisiae S288C
# Conditions: for The level of expressed mRNA in the presence of chemical substance/ (ratio to absence of chemical substance): stress protein genes, DNA chip; for The level of expressed mRNA in the presence of chemical substance/ in its absence, gene YPR184W: yeast gene YPR184W
# Procedure: Yeast (Saccharomyces cerevtisiae S288C (α SUC2mal mel gap2 CUP1)) were cultured at 25° C. on YPD medium (yeast extract 1%, polypepton 2%, glucose 2%). One of toxic chemical substances was added to the cell at logarithmic growth phase, and the cell was further cultured for two hours. Cell was cultured without any chemical substance in the same condition, and was used as control. Concentrations of the chemical substances were defined to inhibit the growth of the yeast but not lead to death.
# After the completion of cultivation, the culture was centrifuged to collect the cells. To the cells, sodium acetate buffer (50 mM sodium acetate, 10 mM EDTA, 1% SDS) was added, and the mixture was shaken at 65° C. for five minutes, followed by returning to room temperature, and obtaining the supernatant, which procedure was repeated two times. To the supernatant, ½ amount of a solution of phenol/chloroform was added, and the mixture was centrifuged to give a supernatant, which was added with an equal amount of chloroform, and the mixture was centrifuged to give a supernatant. To the supernatant, an equal amount of isopropanol containing 0.3 M sodium acetate was added, and the mixture was allowed to stand at room temperature for 30 minutes, after which the mixture was centrifuged to give a sediment of the whole RNAs. Seventy % ethanol was added to the sediment, and the mixture was again centrifuged to give a sediment, which was then dried and dissolved in water. mRNA was isolated from the whole RNAs as followings. In view of the fact that a poly A chain is attached to the 3′ terminus of mRNA, a polynucleotide having a poly T structure which was immobilized on the surface of latex beads was used to trap the mRNA, and then the mRNA was washed and eluted with spine column (Oligotex-dT30<Super>mRNA Purification Kit, Takara). Reverse transcription of the mRNA was conducted with a reverse transcriptase (Super Script II Reverse Transcriptase; catalogue No. 18064-014, GibcoBRL) using fluorescence-labeled nucleotides to give cDNAs that were introduced with Cy3-dUTP or Cy5-dUTP during the reverse transcription.
# The labeled cDNAs were dissolved in TE buffer (10 mM Tris-HCl/1 mM EDTA, pH8.0), and the solution was dropped on the DNA chip containing the whole genes of yeast (DNA Chip Research Inc. Japan) so that the cDNAs were hybridized on the DNA chip at 65° C. for over 12 hours. The fluoresces intensity of the DNA chip was read with a scanner, and the ratio relative to the fluorescence intensity resulting from the absence of chemical substance was estimated as the following, which is shown in Tables 1 to 9: [formula]
# In the Tables, “Intensity” indicated in the rightmost column is a value of the level of expressed mRNA of each gene in control cells as divided by the average level of the expressions of the whole genes.
compound,measurement,setting,value
"CCCCCCCCCCCCOS(=O)(=O)[O-].[Na+] [(18), sodium lauryl sulfate]",The level of expressed mRNA in the presence of chemical substance/The level of expressed mRNA in the absence of chemical substance,yeast gene YNL006W,1.3
same,The level of expressed mRNA in the presence of chemical substance/The level of expressed mRNA in the absence of chemical substance,yeast gene YNL007C,1.0
same,"The level of expressed mRNA in the presence of chemical substance/ (in its absence), gene YNL025C","yeast gene YNL025C, ratio of DNA chip fluorescence intensity to that without chemical substance",1.3
same,The level of expressed mRNA in the presence of chemical substance/ (ratio to absence of chemical substance),yeast gene YNL064C,0.7
same,"The level of expressed mRNA in the presence of chemical substance/ (ratio to absence), gene YNL073W","yeast gene YNL073W, mitochondria-located protein genes, 2 h culture with chemical",1.0
same,The level of expressed mRNA in the presence of chemical substance/The level of expressed mRNA in the absence of chemical substance,yeast gene YNL093W,3.1
same,"The level of expressed mRNA in the presence of chemical substance/ (in its absence), gene YNL192W","yeast gene YNL192W, ratio of DNA chip fluorescence intensity to that without chemical substance",2.8
same,The level of expressed mRNA in the presence of chemical substance/The level of expressed mRNA in the absence of chemical substance,yeast gene YNL333W,1.1
same,The level of expressed mRNA in the presence of chemical substance/The level of expressed mRNA in the absence of chemical substance,yeast gene YNR010W,2.3
same,The level of expressed mRNA in the presence of chemical substance/The level of expressed mRNA in the absence of chemical substance,yeast gene YNR069C,0.9
same,"The level of expressed mRNA in the presence of chemical substance/ (in its absence), gene YNR072W","yeast gene YNR072W, ratio of DNA chip fluorescence intensity to that without chemical substance",1.0
same,The level of expressed mRNA in the presence of chemical substance/ (ratio to absence of chemical substance),yeast gene YNR076W,0.8
same,The level of expressed mRNA in the presence of chemical substance/The level of expressed mRNA in the absence of chemical substance,yeast gene YOL013C,1.4
same,"The level of expressed mRNA in the presence of chemical substance/ (ratio to absence), gene YOL096C","yeast gene YOL096C, mitochondria-located protein genes, 2 h culture with chemical",1.2
same,"The level of expressed mRNA in the presence of chemical substance/ (in its absence), gene YOL096C","yeast gene YOL096C, ratio of DNA chip fluorescence intensity to that without chemical substance",1.2
same,"The level of expressed mRNA in the presence of chemical substance/ (in its absence), gene YOL108C","yeast gene YOL108C, ratio of DNA chip fluorescence intensity to that without chemical substance",2.7
same,"The level of expressed mRNA in the presence of chemical substance/ (in its absence), gene YOL116W","yeast gene YOL116W, ratio of DNA chip fluorescence intensity to that without chemical substance",1.4
same,The level of expressed mRNA in the presence of chemical substance/ (ratio to absence of chemical substance),yeast gene YOL161C,1.0
same,The level of expressed mRNA in the presence of chemical substance/The level of expressed mRNA in the absence of chemical substance,yeast gene YOL164W,1.3
same,The level of expressed mRNA in the presence of chemical substance/ (ratio to absence of chemical substance),yeast gene YOR008C,1.3
same,The level of expressed mRNA in the presence of chemical substance/ (ratio to absence of chemical substance),yeast gene YOR009W,0.8
same,The level of expressed mRNA in the presence of chemical substance/ (ratio to absence of chemical substance),yeast gene YOR010C,0.6
same,The level of expressed mRNA in the presence of chemical substance/The level of expressed mRNA in the absence of chemical substance,yeast gene YOR036W,1.7
same,"The level of expressed mRNA in the presence of chemical substance/ (in its absence), gene YOR103C","yeast gene YOR103C, ratio of DNA chip fluorescence intensity to that without chemical substance",1.5
same,The level of expressed mRNA in the presence of chemical substance/The level of expressed mRNA in the absence of chemical substance,yeast gene YOR117W,0.9
same,The level of expressed mRNA in the presence of chemical substance/The level of expressed mRNA in the absence of chemical substance,yeast gene YOR124C,1.0
same,The level of expressed mRNA in the presence of chemical substance/The level of expressed mRNA in the absence of chemical substance,yeast gene YOR132W,1.6
same,The level of expressed mRNA in the presence of chemical substance/The level of expressed mRNA in the absence of chemical substance,yeast gene YOR157C,1.2
same,"The level of expressed mRNA in the presence of chemical substance/ (in its absence), gene YOR180C","yeast gene YOR180C, ratio of DNA chip fluorescence intensity to that without chemical substance",2.3
same,The level of expressed mRNA in the presence of chemical substance/The level of expressed mRNA in the absence of chemical substance,yeast gene YOR181W,0.6
same,The level of expressed mRNA in the presence of chemical substance/The level of expressed mRNA in the absence of chemical substance,yeast gene YOR185C,1.1
same,The level of expressed mRNA in the presence of chemical substance/The level of expressed mRNA in the absence of chemical substance,yeast gene YOR198C,1.5
same,"The level of expressed mRNA in the presence of chemical substance/ (in its absence), gene YOR251C","yeast gene YOR251C, ratio of DNA chip fluorescence intensity to that without chemical substance",1.3
same,The level of expressed mRNA in the presence of chemical substance/The level of expressed mRNA in the absence of chemical substance,yeast gene YOR259C,1.5
same,The level of expressed mRNA in the presence of chemical substance/The level of expressed mRNA in the absence of chemical substance,yeast gene YOR261C,1.9
same,The level of expressed mRNA in the presence of chemical substance/The level of expressed mRNA in the absence of chemical substance,yeast gene YOR288C,1.6
same,"The level of expressed mRNA in the presence of chemical substance/ (ratio to absence), gene YOR316C","yeast gene YOR316C, mitochondria-located protein genes, 2 h culture with chemical",1.0
same,"The level of expressed mRNA in the presence of chemical substance/ (in its absence), gene YOR348C","yeast gene YOR348C, ratio of DNA chip fluorescence intensity to that without chemical substance",0.9
same,The level of expressed mRNA in the presence of chemical substance/The level of expressed mRNA in the absence of chemical substance,yeast gene YOR355W,0.9
same,"The level of expressed mRNA in the presence of chemical substance/ (in its absence), gene YOR363C","yeast gene YOR363C, ratio of DNA chip fluorescence intensity to that without chemical substance",1.8
same,The level of expressed mRNA in the presence of chemical substance/The level of expressed mRNA in the absence of chemical substance,yeast gene YOR383C,1.1
same,"The level of expressed mRNA in the presence of chemical substance/ (ratio to absence), gene YPL040C","yeast gene YPL040C, mitochondria-located protein genes, 2 h culture with chemical",1.1
same,The level of expressed mRNA in the presence of chemical substance/ (ratio to absence of chemical substance),yeast gene YPL059W,1.3
same,The level of expressed mRNA in the presence of chemical substance/The level of expressed mRNA in the absence of chemical substance,yeast gene YPL089C,1.1
same,The level of expressed mRNA in the presence of chemical substance/The level of expressed mRNA in the absence of chemical substance,yeast gene YPL109C,1.2
same,"The level of expressed mRNA in the presence of chemical substance/ (ratio to absence), gene YPL134C","yeast gene YPL134C, mitochondria-located protein genes, 2 h culture with chemical",1.3
same,The level of expressed mRNA in the presence of chemical substance/ (ratio to absence of chemical substance),yeast gene YPL140C,1.4
same,"The level of expressed mRNA in the presence of chemical substance/ (in its absence), gene YPL148C","yeast gene YPL148C, ratio of DNA chip fluorescence intensity to that without chemical substance",1.1
same,The level of expressed mRNA in the presence of chemical substance/The level of expressed mRNA in the absence of chemical substance,yeast gene YPL149W,2.9
same,The level of expressed mRNA in the presence of chemical substance/The level of expressed mRNA in the absence of chemical substance,yeast gene YPL154C,2.0
same,The level of expressed mRNA in the presence of chemical substance/ (ratio to absence of chemical substance),yeast gene YPL194W,0.8
same,The level of expressed mRNA in the presence of chemical substance/ (ratio to absence of chemical substance),yeast gene YPR005C,1.1
same,The level of expressed mRNA in the presence of chemical substance/The level of expressed mRNA in the absence of chemical substance,yeast gene YPR103W,1.5
same,The level of expressed mRNA in the presence of chemical substance/The level of expressed mRNA in the absence of chemical substance,yeast gene YPR108W,1.3
same,"The level of expressed mRNA in the presence of chemical substance/ (in its absence), gene YPR165W","yeast gene YPR165W, ratio of DNA chip fluorescence intensity to that without chemical substance",2.7
same,"The level of expressed mRNA in the presence of chemical substance/ in its absence, gene YPR184W","energy system protein genes, 2 h culture with the chemical, ratio to control without chemical",1.7
same,"The level of expressed mRNA in the presence of chemical substance/ in its absence, gene YPR184W",ratio of DNA chip fluorescence intensity to that without chemical substance,1.7

# Source: patent US20050112573A1, “Method of detecting toxic substance” (priority 2001, published 2005)
